Measurements as given in patent US12697315B2, “Treatment for interstitial lung disease” (United Therapeutics Corporation, priority 2020, dated 2026).

Experiments:
Type in all cases: in vivo, human
[1] = test system: patients with interstitial lung disease and pulmonary hypertension; assay: Pulmonary function tests (FVC, FEV1, TLC, DLCO), mixed model repeated measurement, INCREASE
Procedure: Subjects having underlying lung disease were treated with inhaled treprostinil over 16 weeks. Subjects initiated inhaled treprostinil or placebo at a dose of 3 breaths (18 mcg) 4 times daily (during waking hours). Study drug doses were maximized throughout the study. Dose escalations (additional 1 breath 4 times daily) could occur up to every 3 days with a target dosing regimen of 9 breaths (54 mcg) 4 times daily and a maximum dose of 12 breaths (72 mcg) 4 times daily, as clinically tolerated. Subjects were assessed during Screening and Baseline to determine eligibility for the study. Once eligible, 5 Treatment Phase visits to the clinic were required at Week 4, Week 8, Week 12, Week 15, and Week 16 (final study visit). An Early Termination (ET) Visit was conducted for subjects who discontinued prior to Week 16; all assessments planned for the final Week 16 Visit were conducted during the ET Visit, if applicable. Subjects were contacted at least weekly by telephone or email to assess tolerance to study drug, adverse events (AEs), and changes to concomitant medications.
Pulmonary function testing was initially conducted as a safety assessment (Safety Population) during the study. […] As a result, post hoc MMRM analyses of FVC data were performed for the ITT Population and are presented in Table 1 (ITT Population), Table 2 (by PH ILD Etiology of IIP) and Table 3 (for subjects with IPF), shown below.
(§1) The 6-minute walk test was performed and laboratory data were obtained at baseline and at weeks 4, 8, 12, and 16, or at the time of early discontinuation of treprostinil or placebo. Each 6-minute walk test was performed 10 to 60 minutes after the most recent dose of active drug or placebo, which is the time of peak plasma treprostinil exposure. A trough test was performed at week 15 at least 4 hours after the participant received a dose of treprostinil or placebo and at least 24 hours before the week 16 test. Pulse oximetry was performed immediately before, during, and after each 6-minute walk test. Measurement of N-terminal pro-B-type natriuretic peptide (NT-proBNP) levels and pulmonary function tests were performed at baseline and at weeks 8 and 16 (or at early discontinuation) after the patients recovered from the 6-minute walk test. The St. George's Respiratory Questionnaire (SGRQ), a quality-of-life measure, was completed at baseline and week 16 or at the time of early discontinuation.
LS Mean (SE); P-values; estimated difference (SE); and associated 95% CIs are from the mixed model repeated measurement with the change from Baseline in pulmonary function test parameter as the dependent variable; treatment, week, treatment by week interaction as the fixed effects; Baseline measurement as the covariate; and subject as the random effect. An unstructured variance/covariance structure shared across treatment groups was used to model the within-subject errors.

[2] = test system: patients with interstitial lung disease and pulmonary hypertension; assay: St. George's Respiratory Questionnaire, INCREASE
Procedure: as §1
The St. George's Respiratory Questionnaire has a range of results from 0 to 100, with higher scores indicating greater impairment and with a minimum clinically important difference of 4 points.
The changes from baseline in Total Score and each of the 3 domain scores were analyzed by parametric ANCOVA with no imputation for missing data.

[3] = test system: patients with interstitial lung disease and pulmonary hypertension; assay: Distance saturation product, INCREASE
Procedure: Change in distance saturation product is the product of distance walked and lowest SpO2 recorded during the 6-minute walk test.^7 Change from baseline to Week 16 in distance saturation product was analyzed by parametric ANCOVA with no imputation for missing distance saturation product values.

[4] = test system: patients with interstitial lung disease and pulmonary hypertension; assay: Supplemental oxygen use, INCREASE
[5] = Week 8, subjects with IPF, listed as inhaled treprostinil
[6] = Week 16, subjects with IPF, listed as inhaled treprostinil

Compound: CCCCC[C@H](O)CC[C@@H]1[C@H]2Cc3cccc(OCC(=O)O)c3C[C@H]2C[C@H]1O [Inhaled treprostinil, treprostinil]
- effect on any pulmonary function test variable during the trial ([1]; 16-week trial): no deleterious effect
- FVC (% predicted), Estimated Difference Inhaled treprostinil - Placebo ([1]; Week 8, ITT Population, MMRM): 1.79 % predicted
- FVC (% predicted), LS Mean change from baseline ([1]; Week 8, ITT Population, MMRM): 0.77 % predicted
- FVC (mL), Estimated Difference Inhaled treprostinil - Placebo ([1]; Week 8, ITT Population, MMRM): 28.47 mL
- FVC (mL), LS Mean change from baseline ([1]; Week 8, ITT Population, MMRM): 5.49 mL
- DLCO (% predicted), Estimated Difference Inhaled treprostinil − Placebo ([1]; Week 8, MMRM): 1.07 % predicted
- DLCO (% predicted), LS Mean change from Baseline ([1]; Week 8, MMRM): −0.13 % predicted
- DLCO (mL/min/mmHg), Estimated Difference Inhaled treprostinil − Placebo ([1]; Week 8, MMRM): 0.19 mL/min/mmHg
- DLCO (mL/min/mmHg), LS Mean change from Baseline ([1]; Week 8, MMRM): −0.27 mL/min/mmHg
- FEV1 (% predicted), Estimated Difference Inhaled treprostinil − Placebo ([1]; Week 8, MMRM): 0.57 % predicted
- FEV1 (% predicted), LS Mean change from Baseline ([1]; Week 8, MMRM): −0.18 % predicted
- FEV1 (mL), Estimated Difference Inhaled treprostinil − Placebo ([1]; Week 8, MMRM): -8.95 mL
- FEV1 (mL), LS Mean change from Baseline ([1]; Week 8, MMRM): -21.34 mL
- TLC (% predicted), Estimated Difference Inhaled treprostinil − Placebo ([1]; Week 8, MMRM): 0.28 % predicted
- TLC (% predicted), LS Mean change from Baseline ([1]; Week 8, MMRM): −0.05 % predicted
- TLC (mL), Estimated Difference Inhaled treprostinil − Placebo ([1]; Week 8, MMRM): -16.23 mL
- TLC (mL), LS Mean change from Baseline ([1]; Week 8, MMRM): -38.75 mL
- FVC (% predicted), Estimated Difference Inhaled treprostinil - Placebo ([1]; Week 8, PH-ILD etiology IIP): 1.95 % predicted
- FVC (% predicted), LS Mean change from baseline ([1]; Week 8, PH-ILD etiology IIP): 0.92 % predicted
- FVC (mL), Estimated Difference Inhaled treprostinil - Placebo ([1]; Week 8, PH-ILD etiology IIP): 46.48 mL
- FVC (mL), LS Mean change from baseline ([1]; Week 8, PH-ILD etiology IIP): 9.27 mL
- FVC (% predicted), Estimated Difference Inhaled treprostinil - Placebo ([1]; Week 8, subjects with IPF): 2.543 % predicted
- FVC (% predicted), LS Mean change from baseline ([1]; Week 8, subjects with IPF): 1.60 % predicted
- FVC (mL), Estimated Difference Inhaled treprostinil - Placebo ([1]; Week 8, subjects with IPF): 84.522 mL
- FVC (mL), LS Mean change from baseline ([1]; Week 8, subjects with IPF): 41.69 mL
- FVC (% predicted), Estimated Difference Inhaled treprostinil - Placebo [1, 5]: 2.54 % predicted
- FVC (mL), Estimated Difference Inhaled treprostinil - Placebo [1, 5]: 84.52 mL
- FVC (% predicted), Estimated Difference Inhaled treprostinil - Placebo ([1]; Week 16, ITT Population, MMRM): 1.80 % predicted
- FVC (% predicted), LS Mean change from baseline ([1]; Week 16, ITT Population, MMRM): 1.07 % predicted
- FVC (mL), Estimated Difference Inhaled treprostinil - Placebo ([1]; Week 16, ITT Population, MMRM): 44.40 mL
- FVC (mL), LS Mean change from baseline ([1]; Week 16, ITT Population, MMRM): 9.77 mL
- DLCO (% predicted), Estimated Difference Inhaled treprostinil − Placebo ([1]; Week 16, MMRM): 0.60 % predicted
- DLCO (% predicted), LS Mean change from Baseline ([1]; Week 16, MMRM): −1.14 % predicted
- DLCO (mL/min/mmHg), Estimated Difference Inhaled treprostinil − Placebo ([1]; Week 16, MMRM): 0.02 mL/min/mmHg
- DLCO (mL/min/mmHg), LS Mean change from Baseline ([1]; Week 16, MMRM): −0.61 mL/min/mmHg
- FEV1 (% predicted), Estimated Difference Inhaled treprostinil − Placebo ([1]; Week 16, MMRM): 0.38 % predicted
- FEV1 (% predicted), LS Mean change from Baseline ([1]; Week 16, MMRM): −0.24 % predicted
- FEV1 (mL), Estimated Difference Inhaled treprostinil − Placebo ([1]; Week 16, MMRM): -2.56 mL
- FEV1 (mL), LS Mean change from Baseline ([1]; Week 16, MMRM): -32.18 mL
- TLC (% predicted), Estimated Difference Inhaled treprostinil − Placebo ([1]; Week 16, MMRM): 1.49 % predicted
- TLC (% predicted), LS Mean change from Baseline ([1]; Week 16, MMRM): 2.52 % predicted
- TLC (mL), Estimated Difference Inhaled treprostinil − Placebo ([1]; Week 16, MMRM): 17.37 mL
- TLC (mL), LS Mean change from Baseline ([1]; Week 16, MMRM): 45.43 mL
- FVC (% predicted), Estimated Difference Inhaled treprostinil - Placebo ([1]; Week 16, PH-ILD etiology IIP): 2.88 % predicted
- FVC (% predicted), LS Mean change from baseline ([1]; Week 16, PH-ILD etiology IIP): 1.66 % predicted
- FVC (mL), Estimated Difference Inhaled treprostinil - Placebo ([1]; Week 16, PH-ILD etiology IIP): 108.18 mL
- FVC (mL), LS Mean change from baseline ([1]; Week 16, PH-ILD etiology IIP): 22.16 mL
- FVC (% predicted), median improvement ([1]; Week 16, Safety Population): 1.0%
- FVC (% predicted), Estimated Difference Inhaled treprostinil - Placebo ([1]; Week 16, subjects with IPF): 3.504 % predicted
- FVC (% predicted), LS Mean change from baseline ([1]; Week 16, subjects with IPF): 1.62 % predicted
- FVC (mL), Estimated Difference Inhaled treprostinil - Placebo ([1]; Week 16, subjects with IPF): 168.524 mL
- FVC (mL), LS Mean change from baseline ([1]; Week 16, subjects with IPF): 38.24 mL
- FVC (% predicted), Estimated Difference Inhaled treprostinil - Placebo [1, 6]: 3.50 % predicted
- FVC (mL), Estimated Difference Inhaled treprostinil - Placebo [1, 6]: 168.52 mL
- St. George's Respiratory Questionnaire, Change from Baseline, Median ([2]; Week 16): −0.70
- St. George's Respiratory Questionnaire, Value, Median ([2]; Week 16): 56.30
- St. George's Respiratory Questionnaire, Change from Baseline, LS Mean (SE) ([2]; Week 16, ANCOVA): −1.30 (0.87)
- St. George's Respiratory Questionnaire, Change from Baseline, Mean (SD) ([2]; Week 16, n 143): −1.25 (10.99)
- St. George's Respiratory Questionnaire, Value, Mean (SD) ([2]; Week 16, n 143): 55.91 (17.07)
- St. George's Respiratory Questionnaire, LS Mean Difference ([2]; week 16, vs placebo): −1.18, (1.25) (−3.63, 1.28)
- between-group difference in patient-reported quality of life assessed with the SGRQ ([2]; week 16, vs placebo): no significant between-group difference
- Distance saturation product, Week 16 Change from Baseline, LS Mean (SE) ([3]; ANCOVA): 7.2 (4.5) m %
- Distance saturation product, Week 16 Change from Baseline, Mean (SD) ([3]; n 118): 7.607 (45.680) m %
- Distance saturation product, Week 16 Change from Baseline, Median ([3]; n 118): 8.385 m %
- Distance saturation product, LS Mean Difference (SE) ([3]; week 16, vs placebo): 11.51 (6.5), 95% CI (−1.33, 24.35) m %
- between-group difference in the distance-saturation product ([3]; week 16, vs placebo): no significant between-group difference
- Supplemental oxygen use During Walk (L/min), Change from Baseline, Median ([4]; Baseline During Walk): 0.0 L/min
- Supplemental oxygen use During Walk (L/min), Value, Median ([4]; Baseline During Walk): 4.0 L/min
- Supplemental oxygen use During Walk (L/min), Change from Baseline, Mean (SD) ([4]; Baseline During Walk, n 129): 0.1 (0.8) L/min
- Supplemental oxygen use During Walk (L/min), Value, Mean (SD) ([4]; Baseline During Walk, n 129): 4.9 (4.0) L/min
- Supplemental oxygen use Pre-walk (L/min), Change from Baseline, Median ([4]; Week 16): 0.0 L/min
- Supplemental oxygen use Pre-walk (L/min), Value, Median ([4]; Week 16): 3.0 L/min
- Supplemental oxygen use Pre-walk (L/min), Change from Baseline, Mean (SD) ([4]; Week 16, n 131): 0.4 (1.4) L/min
- Supplemental oxygen use Pre-walk (L/min), Value, Mean (SD) ([4]; Week 16, n 131): 3.0 (2.5) L/min
- treatment-related changes in supplemental oxygen use ([4]; over the trial period): no significant treatment-related changes
